The results in this text go back to patent US11365181B2, “P-phenylenediamine derivative as potassium channel regulator and preparation method and medical application thereof” (Shanghai Zhimeng Biopharma, Inc., priority 2018, dated 2022).

In general, EC50 refers to the concentration giving half of the maximal effect. Read a high EC50 as weaker potency.

The target of this assay is KCNQ2 potassium channel (CHO-KCNQ2 cells) (Homo sapiens (Human), UniProt O43526). Nature of the assay: Activity test of potassium ion channel opener (FDSS/μCELL detection, FluxOR potassium ion channel assay). Type of assay: cell-based. The following applies: CHO-KCNQ2 cells, FluxOR fluorescence, FDSS/μCELL. The protocol: Activity Test of Potassium Ion Channel Opener (FDSS/ρCELL Detection)
Sequence of KCNQ2 potassium channel (CHO-KCNQ2 cells) (O43526 whole entry): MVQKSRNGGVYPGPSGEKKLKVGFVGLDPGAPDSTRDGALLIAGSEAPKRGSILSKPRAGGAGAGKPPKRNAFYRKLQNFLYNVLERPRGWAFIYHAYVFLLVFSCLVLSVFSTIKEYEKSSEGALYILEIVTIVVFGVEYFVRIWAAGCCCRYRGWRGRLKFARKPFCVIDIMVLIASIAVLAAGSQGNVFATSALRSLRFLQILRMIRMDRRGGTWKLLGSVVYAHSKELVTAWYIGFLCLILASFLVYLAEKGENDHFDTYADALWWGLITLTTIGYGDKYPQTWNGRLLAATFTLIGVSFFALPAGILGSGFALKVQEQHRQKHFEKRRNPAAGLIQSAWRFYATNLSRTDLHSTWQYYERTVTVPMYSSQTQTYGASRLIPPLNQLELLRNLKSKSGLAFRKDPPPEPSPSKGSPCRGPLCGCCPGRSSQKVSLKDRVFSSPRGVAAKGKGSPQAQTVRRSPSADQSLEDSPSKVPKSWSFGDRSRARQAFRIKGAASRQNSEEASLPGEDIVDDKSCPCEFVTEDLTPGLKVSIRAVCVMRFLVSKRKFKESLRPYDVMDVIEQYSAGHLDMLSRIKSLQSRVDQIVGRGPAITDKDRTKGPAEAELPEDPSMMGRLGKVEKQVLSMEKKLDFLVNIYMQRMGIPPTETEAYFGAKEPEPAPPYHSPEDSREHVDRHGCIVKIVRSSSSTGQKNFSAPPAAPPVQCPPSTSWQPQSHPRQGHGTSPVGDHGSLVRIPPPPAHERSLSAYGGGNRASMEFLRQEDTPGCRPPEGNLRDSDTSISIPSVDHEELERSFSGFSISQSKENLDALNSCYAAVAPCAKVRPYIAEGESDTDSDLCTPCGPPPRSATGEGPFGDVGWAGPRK
Cell preparation: CHO-KCNQ2 cells were cultured in a 175 cm^2 culture flask, and when the cells was grown to a density of 60-80%, the culture medium was removed, washed with 7 mL PBS (Phosphate Buffered Saline) once, then 3 mL 0.25% Trypsin was added to digest. After the digestion was completed, 7 mL culture medium (90% DMEM/F12+10% FBS+500 μg/mL G418) was added to neutralize, centrifugated for 3 minutes at 800 rpm. The supernatant was aspirated, then 5 mL culture medium was added to resuspend, and then the cells were counted.
Cell plating: The density to 3×10^4/well was adjusted according to the results of cell counting. After standing at room temperature for 30 minutes, the cells were placed in a 37° C. CO2 incubator and incubated overnight for 16-18 hours. The cell density reached about 80%.
Fluorescent dye incubation: The cell culture medium was discarded, 80 μL/well loading buffer was added, and the cells were incubated in dark at room temperature for 60 minutes.
Compound incubation: the loading buffer was discarded, 80 μL/well prepared compound solution was added, incubated at room temperature and in dark for 20 minutes.
Fluorescence data collection: FDSS/μCELL instrument for real-time fluorescence is used for signal recording, wherein excitation wavelength was 480 nm, emission wavelength was 540 nm, and signals were recorded 1 times per second, after baseline was recorded for 10 seconds, the addition of 20 μL/well stimulation buffer was started, and then the signal was continuously record until the end of 180 seconds.
loading buffer: 10 mL/plate, the preparation method was as follows:
Test buffer sample: 100 mL/plate, the preparation method was as follows:
Stimulation buffer: 5 mL/plate, the preparation method was as follows:
The above buffer was from a commercially available kit, the kit name was FluxOR potassium ion channel assay, the manufacturer's brand was Invitrogen, the article number was F10017, the lot number was 913728.
20 mM DMSO compound mother liquor was prepared, 10 μL of 20 mM compound mother liquor was took and added into 20 μL DMSO solution, serially diluted 3 times to 8 intermediate concentrations; then the middle concentration of the compound was took to the test buffer, 200 times dilution to get the final concentration to be tested, 80 μL was took and added to the test plate.
The highest test concentration was 100 μM, followed by […], 33.33, 11.11, 3.70, 1.23, 0.41, 0.137, 0.045 μM, total 8 concentrations. Each concentration 3 replicate holes.
This concentration of DMSO had no effect on the KCNQ2 potassium channel.
Experimental data was analyzed by Excel 2007 and GraphPad Prism 5.0 software, and the ratio of 180 seconds was calculated to calculate the excitement effect. The excitement effect of the compound is calculated by the following formula: […]
Environment: Temperature about 25° C.
Reagent: FluxOR™ Detection Kit (Invitrogen, Cat #[…])
The experimental data in the report might meet the following criteria: Z′ Factor>0.5
2. Determination Results: See Table 1 for Details, where the Smaller EC50 was, the Higher the Activity of the Corresponding Compound was.
References for the above test methods:
(2) Jinfeng Yue et al. Acta Pharmacologica Sinica, 2016, 37:105-110.
As to `Cc1cc(N2CCCc3ccsc3C2)cc(C)c1NC(=O)CC(C)(C)C` [Compound 03026, N-(2,6-dimethyl-4-(4,5,6,8-tetrahydro-7H-thieno[2,3-c]azepin-7-yl)phenyl)-3,3-dimethylbutanamide], the EC50 was 88 nM. The value for `Cc1cc(N2CCCc3cscc3C2)cc(C)c1NC(=O)CC(C)(C)C` [Compound 03027, N-(2,6-dimethyl-4-(4,6,7,8-tetrahydro-5H-thieno[3,4-c]azepin-5-yl)phenyl)-3,3-dimethylbutanamide] was 147 nM. For the compound `Cc1cc(N2CCCc3sccc3C2)cc(C)c1NC(=O)CC(C)(C)C` [Compound 03028, N-(2,6-dimethyl-4-(4,6,7,8-tetrahydro-5H-thieno[3,2-c]azepin-5-yl)phenyl)-3,3-dimethylbutanamide], a half-maximal response (EC50) required 272 nM. The figure for `Cc1cc(N2CCCc3cccnc3C2)cc(C)c1NC(=O)CC(C)(C)C` [Compound 03029, N-(2,6-dimethyl-4-(5,6,7,9-tetrahydro-8H-pyrido[2,3-c]azepin-8-yl)phenyl)-3,3-dimethylbutanamide] is 14700 nM; for `Cc1cc(N2CCCCc3sccc32)cc(C)c1NC(=O)CC(C)(C)C` [Compound 03034, (N-(2,6-dimethyl-6-(1-tert-butylacetyl)aniline))-(5,6,7,8-tetrahydro-4H)-thieno [3,2]azaanthracene] it is 71 nM. `Cc1cc(N2CCCCc3ncccc32)cc(C)c1NC(=O)CC(C)(C)C` [Compound 03037, N-(2,6-Dimethyl-4-(6,7,8,9-tetrahydro-5H-pyrido[32-b]azepin-5-yl)phenyl)-3,3-dimethylbutanamide] came in with an EC50 of 6480 nM. The value for `Cc1cc2c(s1)CCCCN2c1cc(C)c(NC(=O)CC(C)(C)C)c(C)c1` [Compound 03039, N-(2,6-dimethyl-4-(2-methyl-5,6,7,8-tetrahydro-4H-thieno[3,2-b]azepin-4-yl)phenyl)-3,3-dimethylbutyramide] was 409 nM; that for `Cc1cc(N2CCCCc3sc(Cl)cc32)cc(C)c1NC(=O)CC(C)(C)C` [Compound 03049, N-(4-(2-chloro-5,6,7,8-tetrahydro-4H-thieno[3,2-b]azepin-4-yl)-2,6-dimethylphenyl)-3,3-dimethylbutanamide] was 260 nM. In turn, `Cc1cc(N2CCCOc3cc(F)ccc32)cc(C)c1NC(=O)CC(C)(C)C` [Compound 03059, N-(4-(8-fluoro-3,4-dihydrobenzo[b] [1,4]oxazepine-5(2H)-yl)-2,6-dimethylphenyl)-3,3-dimethylbutanamide] showed an EC50 of 860 nM.

Compound `Cc1cc(N2CCOc3cc(F)ccc32)cc(C)c1NC(=O)CC(C)(C)C` [Compound 03060, N-(2,6-dimethyl-6-(1-tert-butylacetyl)aniline)) 4-(7-fluoro-2,3-dihydro-4H-benzo[1,4] oxazine] registered an EC50 greater than 100000 nM. The figure for `Cc1ccc2c(c1)COCCN2c1cc(C)c(NC(=O)CC(C)(C)C)c(C)c1` [Compound 03066] is 49 nM; for `Cc1cc(N2CCc3cc(F)ccc3C2)cc(C)c1NC(=O)CC(C)(C)C` [Compound B, reference compound] it is 98 nM; for `O=C(Nc1ccc(Cl)nc1)c1ccc(F)cc1` [ZTZ240, reference compound] it is 8230 nM.
